Laboratory results published in patent US6602516B1, “Antibiotic/medicated gutta percha point” (priority 2000, dated 2003).

Assays:
[1] = system: Escherchi coli; test: Naval Dental School antibacterial study of iodoform/gutta percha (FIG. 1); assay type: cell-based; details: tested aerobe
Excerpt: (§1) However, it is not as effective against an oral salivary leakage contamination as determined by the previous leakage and bacterial investigations.
(§2) FIG. 1 is a table illustrating the results from a study at Naval Dental School, Bethesda, Md., the iodoform/gutta percha disclosed in U.S. Pat. No. 5,648,403, issued Jul. 15, 1997.

[2] = system: Enterococci faecium; test: as above; assay type: cell-based; details: facultative anaerobe
Excerpt: as §1, §2

[3] = system: Prevotella intermedius; test: as above; assay type: cell-based
Excerpt: as §1, §2

[4] = system: Streptococcus sanguis; test: as above; assay type: cell-based; details: tested aerobe
Excerpt: as §1, §2

[5] = system: Streptococcus mutans; test: as above; assay type: cell-based; details: tested aerobe
Excerpt: as §1, §2

[6] = system: Staphylococcus aureus; test: as above; assay type: cell-based; details: tested aerobe
Excerpt: as §1, §2

[7] = system: Actinomyces; test: as above; assay type: cell-based
Excerpt: as §1, §2

[8] = system: Lactobacillus; test: as above; assay type: cell-based
Excerpt: as §1, §2

[9] = system: patients; details: more than 1,000 patients; cited from earlier work

## IC(I)I [Iodoform, Triiodomethane (Iodoform)]
[1]
  effectiveness against Escherchi coli: ineffective
[2]
  effectiveness against Enterococci faecium: ineffective
[3]
  effectiveness against Prevotella intermedius: ineffective
[4]
  effectiveness against Streptococcus sanguis: ineffective
[5]
  effectiveness against Streptococcus mutans: ineffective
[6]
  effectiveness against Staphylococcus aureus: ineffective
[7]
  effectiveness against Actinomyces: ineffective
[8]
  effectiveness against Lactobacillus: ineffective

## CN(C)[C@@H]1C(O)=C(C(N)=O)C(=O)[C@@]2(O)C(O)=C3C(=O)c4c(O)cccc4[C@@](C)(O)[C@H]3C[C@@H]12 [tetracycline]
[9]
  allergic reactions: no allergic reactions
